These results are taken from patent US7217527B2, “Assay for phosphodiesterase function” (Vanderbilt University, priority 2003, dated 2007).

Assay [1] deals with second peak of cGMP PDE activity (human lung extract). The following applies: 40 pmol/ml sildenafil; 0.4 μM [^3H]cGMP substrate.
Experimental: PKG activity was determined in the presence of 2 μM cGMP as described in Materials and Methods.
PDE activity was determined by a modified assay (Martins et al., 1982) as described earlier (Gopal et al., 2001) using 0.4 μM [^3H]cGMP as substrate. PKG activity was determined in the presence of 2 μM cGMP as described (Gopal et al., 2001).
In assay [2] the target is GAF domains of PDE5 (Homo sapiens, UniProt O76074). The following applies: cited from earlier work.
Assay [3] concerns the target PDE5 (Homo sapiens, UniProt O76074). The following applies: read-out: Km for the catalytic site; cited from earlier work.
Assay [4] addresses T1, isolated regulatory domain of PDE5 (Homo sapiens, UniProt O76074).
T1 construct: made in house
The class given is binding. The procedure: Reactions were incubated on an ice water bath for 20 min. […] Tubes were each rinsed with 3 ml of the same buffer and filtered. The filter membranes were removed and placed into slots of a scintillation vial box for subsequent drying. The vial box was placed into a glassware dryer for 10 min, and dried papers were transferred to 6 ml scintillation vials. Five ml non-aqueous scintillant was added, and papers were counted in a scintillation counter.

Assay [5] has as its target T2, crude human lung extract (Homo sapiens, UniProt O76074).
T2 construct: from tissue; host or cells: human lung (explanted lung of transplant patients), supernatant fractionated on DEAE-Sephacel
Put plainly: [^3H]sildenafil binding in DEAE-Sephacel fractions of crude human lung extract (FIG. 5). The following applies: 16 nM [^3H]sildenafil.
Experimental: 5 g human lung was thawed, cut into small pieces and homogenized in 80 ml 2.5 mM potassium phosphate (pH 6.8) containing 0.25 mM EDTA, 0.025 mM IBMX, 4 mM β-mercaptoethanol, and 1 mM CaCl2 with a Cuisinart apparatus (high speed) using 3 bursts of 15 sec each at 4° C. After centrifugation in a Beckman JA-20 rotor for 30 min at 10,000×g, 72 ml supernatant was applied to a DEAE-Sephacel column (0.9×10 cm) equilibrated in KPM and the column was washed with 20 ml of KPM containing 20 mM NaCl and 1 mM CaCl2. The column was developed with a linear (20–280 mM) NaCl gradient in KPM containing 1 mM CaCl2. […] PKG activity was determined in the presence of 2 μM cGMP as described in Materials and Methods.

In the case of `CCCc1nn(C)c2c(=O)[nH]c(-c3cc(S(=O)(=O)N4CCN(C)CC4)ccc3OCC)nc12` [sildenafil], the “inhibition of second peak of cGMP PDE activity” value in assay [1] was “not inhibited”. Further, the “competition with [^3H]cGMP for binding to the GAF domains of PDE5” value in assay [2] (even at high concentrations (Turko et al., 1999)) is listed as “does not compete”.

Turning to `Nc1nc2c(ncn2[C@@H]2O[C@@H]3COP(=O)(O)O[C@H]3[C@H]2O)c(=O)[nH]1` [cGMP], the Kd in assay [2] was 200 nM. Moreover, the Km in assay [3] was 5 µM.

In the case of `CCCc1nn(C)c2c(=O)[nH]c(-c3cc(S(=O)(=O)N4CCN(C)CC4)ccc3OCC)nc12` [[^3H]sildenafil], in assay [4], the “binding to isolated regulatory domain of PDE5” value is listed as “did not detectably bind”. In assay [5], the “[^3H]sildenafil-binding activity other than the PDE5 peak” value is given as “no other significant peak”.

The term Kd denotes the equilibrium constant for the complex coming apart. A word on the Km: it is the concentration of substrate that gives half-maximal velocity.
